Assay results reported in patent publication US12612410B2 (CHILDREN'S HOSPITAL MEDICAL CENTER, priority 2020, dated 2026).

What was measured:
[1] = target: T1, IRAK1 (Homo sapiens, UniProt P51617); assay: RBC HotSpot Kinase Assay, IRAK1; assay type: biochemical; settings: isolated kinase, 33P-ATP
T1 construct: purchased Reaction Biology (RBC), HotSpot kinase assay
Outline: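 Kinase domain constructs, possibly truncated, were assayed radiometrically with 33P-ATP and substrate after 20 min compound preincubation, reacting 2 h at room temp.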

[2] = tested on: NF-κB; assay: NF-kB SEAP reporter assay in THP-1-Blue NF-κB cells, Pam3CSK4 stimulation; assay type: cell-based; settings: Pam3CSK4 1 ng/mL, read-out: NF-κB Pam3SCK4 IC50
Protocol: (§1) THP-1-Blue NF-xB cells (InvivoGen) carrying a stable integrated NF-κB-inducible secreted embryonic alkaline phosphatase (SEAP) reporter construct were plated at a concentration of 1×10^5 cells per well. The cells were stimulated with Pam3CSK4 (1 ng/mL) or hIL1B (1 ng/mL). After 10-20 minutes, the cells were then treated with vehicle (DMSO) or serial dilutions of the test compounds (10 doses tested for each test compound, with a 1:10 dilution series starting at 1 μM or 3 μM) with a final volume of 200 μL for 24 hours at 37° C. After 24 hours, the cells were centrifuged and 20 μL supernatant was incubated with 180 μL QUANTI-Blue reagent at 37° C. for 30-60 minutes. The levels of NF-κB-induced was measured in a microplate reader at 620 nm.

[3] = tested on: NF-κB; assay: NF-kB SEAP reporter assay in THP-1-Blue NF-κB cells, hIL1B stimulation; assay type: cell-based; settings: hIL1B 1 ng/mL, read-out: NF-κB IL1B IC50
Protocol: as §1

[4] = tested on: MOLM14 D835Y cells; assay: MOLM14 D835Y cell viability assay (Cell Titer Glo); assay type: cell-based; settings: Homo sapiens, MOLM-14, 48 h
Outline: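 MOLM14 cells carrying FLT3 D835Y or F691L were seeded at 1000 cells/well in RPMI-1640 with 20% FBS and dosed at 22 concentrations, 1:2 dilutions from 10 μM. Viability after 48 h by Cell Titer Glo luminescence; 2.3 μM bortezomib as cytotoxic control.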

T1 sequence (P51617 whole entry): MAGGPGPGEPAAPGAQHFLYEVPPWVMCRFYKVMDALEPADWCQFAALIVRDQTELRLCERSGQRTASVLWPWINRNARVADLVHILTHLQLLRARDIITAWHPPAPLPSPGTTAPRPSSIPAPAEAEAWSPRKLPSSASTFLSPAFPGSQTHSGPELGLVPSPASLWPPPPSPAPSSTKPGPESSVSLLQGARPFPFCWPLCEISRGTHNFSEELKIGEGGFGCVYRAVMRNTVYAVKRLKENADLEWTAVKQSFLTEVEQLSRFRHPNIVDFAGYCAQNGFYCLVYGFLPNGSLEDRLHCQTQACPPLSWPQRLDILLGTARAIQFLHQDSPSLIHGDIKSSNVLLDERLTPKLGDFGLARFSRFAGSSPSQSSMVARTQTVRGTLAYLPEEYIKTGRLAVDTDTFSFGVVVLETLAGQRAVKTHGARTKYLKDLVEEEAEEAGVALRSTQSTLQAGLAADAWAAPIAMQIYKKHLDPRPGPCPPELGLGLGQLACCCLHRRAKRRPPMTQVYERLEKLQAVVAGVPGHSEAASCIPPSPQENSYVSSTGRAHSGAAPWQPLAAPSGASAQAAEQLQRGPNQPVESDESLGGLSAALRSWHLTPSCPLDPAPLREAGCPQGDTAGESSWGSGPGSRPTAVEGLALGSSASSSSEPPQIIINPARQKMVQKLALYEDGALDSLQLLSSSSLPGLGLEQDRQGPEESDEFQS

| SMILES | IC50 [1] [nM] | IC50 ([2]; 24 h) [nM] | IC50 ([3]; 24 h) [nM] | IC50 [4] [nM] | IC50 ([2]; 24 hours) [nM] | IC50 ([3]; 24 hours) [nM] |
| --- | --- | --- | --- | --- | --- | --- |
| O=C1NCCN1c1cn2c(-c3cccc(N[C@H]4CNCC[C@@H]4F)n3)cnc2cn1 [Compound 118, 1-(3-(6-(((3S,4S)-4-fluoropiperidin-3-yl)amino)pyridin-2-yl)imidazo[1,2-a]pyrazin-6-yl)imidazolidin-2-one] | 22 | 101 | 406 | 9 |  |  |
| O=C1CCCN1c1cn2c(-c3cccc(N[C@H]4CNCC[C@@H]4F)n3)cnc2cn1 [Compound 119, 1-(3-(6-(((3S,4S)-4-fluoropiperidin-3-yl)amino)pyridin-2-yl)imidazo[1,2-a]pyrazin-6-yl)pyrrolidin-2-one] | 110 |  |  | 19 | 56 | 1290 |
| O=C1CCCN1c1cn2c(-c3cccc(N[C@H]4CNC[C@@H]4F)n3)cnc2cn1 [Compound 121, 1-(3-(6-(((3S,4S)-4-fluoropyrrolidin-3-yl)amino)pyridin-2-yl)imidazo[1,2-a]pyrazin-6-yl)pyrrolidin-2-one] | 207 | 54 | 76 | 23 |  |  |
| CC(C)(C)c1cn2c(-c3cccc(N[C@@H]4CCCNC4)n3)cnc2cn1 [Compound 129, (R)-6-(6-(tert-butyl)imidazo[1,2-a]pyrazin-3-yl)-N-(piperidin-3-yl)pyridin-2-amine] | 97 |  |  | 33 | 11 | 70 |
